# In article PMC6001238, “Iterative Chemical Engineering of Vancomycin Leads to Novel Vancomycin Analogs With a High in Vitro Therapeutic Index” (Frontiers in Microbiology, 2018):
# Columns and labels:
# [1] = system: E. faecalis VRE 29; test: MIC, broth microdilution, vancomycin-resistant E. faecalis VRE 29 (VanA); format: cell-based, Enterococcus faecalis; settings: for MIC: Enterococcus faecalis VRE 29 (vancomycin-resistant), read-out: MIC; for MIC-fold improvement vs. vancomycin: VRE 29, ratio of MIC of vancomycin and MIC of analogue
# How it was run: (§1)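 Controls (ultrapure water; broth not inoculated) were included throughout CLSI-compliant broth microdilution. One condition supplemented analogue or comparator with 10 μM vancomycin, final level.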
# [2] = system: E. faecalis VRE 37; test: MIC, broth microdilution, vancomycin-resistant E. faecalis VRE 37 (VanA); format: cell-based, Enterococcus faecalis; settings: for MIC: Enterococcus faecalis VRE 37 (vancomycin-resistant), read-out: MIC; for MIC-fold improvement vs. vancomycin: VRE 37, ratio of MIC of vancomycin and MIC of analogue
# How it was run: as §1
# [3] = system: MRSA KS2; test: MIC, broth microdilution, MRSA KS2; format: cell-based, Staphylococcus aureus; settings: for MIC-fold improvement vs. vancomycin: MRSA KS2, ratio of MIC of vancomycin and MIC of analogue; for MIC: Staphylococcus aureus MRSA KS2, read-out: MIC
# How it was run: as §1
# [4] = system: L1210, CEM and HeLa cell lines; test: Cytostatic activity, average or summary over L1210, CEM and HeLa; format: cell-based; settings: average of L1210, CEM and HeLa; read-out: Toxicity (IC50) Average
# How it was run: (§2)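 Test compounds, serially diluted, received an equal volume of cell suspension at 300,000–500,000 cells/mL. After 37°C incubation (2 days for L1210, 3 for CEM, 4 for HeLa), cells were enumerated by Coulter counting and 50%-inhibitory concentrations calculated per cell type.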
# [5] = system: Murine leukemia (L1210) cells; test: Cytostatic activity, L1210 cell proliferation; format: cell-based; settings: mean ± SD of three experiments; highest concentration tested 250 µM; 2 days; read-out: Toxicity (IC50) L1210
# How it was run: as §2
# [6] = system: MRSA KS6; test: MIC, broth microdilution, MRSA KS6; format: cell-based, Staphylococcus aureus; settings: for MIC-fold improvement vs. vancomycin: MRSA KS6, ratio of MIC of vancomycin and MIC of analogue; for MIC: Staphylococcus aureus MRSA KS6, read-out: MIC
# How it was run: as §1
# [7] = system: E. faecalis VSE 1; test: MIC, broth microdilution, vancomycin-sensitive E. faecalis (VSE 1); format: cell-based, Enterococcus faecalis; settings: for MIC: Enterococcus faecalis VSE 1 (vancomycin-sensitive), read-out: MIC; for MIC-fold improvement vs. vancomycin: VSE 1, ratio of MIC of vancomycin and MIC of analogue
# How it was run: as §1
# [8] = system: E. faecalis VRE 6; test: MIC, broth microdilution, vancomycin-resistant E. faecalis VRE 6 (VanA); format: cell-based, Enterococcus faecalis; settings: for MIC: Enterococcus faecalis VRE 6 (vancomycin-resistant), read-out: MIC; for MIC-fold improvement vs. vancomycin: VRE 6, ratio of MIC of vancomycin and MIC of analogue
# How it was run: as §1
# [9] = system: S. aureus VRSA; test: MIC, broth microdilution, vancomycin-resistant S. aureus (VRSA); format: cell-based, Staphylococcus aureus; settings: for MIC: Staphylococcus aureus VRSA, read-out: MIC; for MIC-fold improvement vs. vancomycin: VRSA, ratio of MIC of vancomycin and MIC of analogue
# How it was run: as §1
# [10] = system: human cervix carcinoma (HeLa) cells; test: Cytostatic activity, HeLa cell proliferation; format: cell-based; settings: mean ± SD of three experiments; highest concentration tested 250 µM; 4 days; read-out: Toxicity (IC50) HeLa
# How it was run: as §2
# [11] = system: S. aureus VISA/HIP5827; test: MIC, broth microdilution, vancomycin-intermediate S. aureus VISA HIP5827; format: cell-based, Staphylococcus aureus; settings: for MIC: Staphylococcus aureus VISA/HIP5827, read-out: MIC; for MIC-fold improvement vs. vancomycin: VISA/HIP5827, ratio of MIC of vancomycin and MIC of analogue
# How it was run: as §1
# [12] = system: human T-lymphocyte (CEM) cells; test: Cytostatic activity, CEM cell proliferation; format: cell-based; settings: mean ± SD of three experiments; highest concentration tested 250 µM; 3 days; read-out: Toxicity (IC50) CEM
# How it was run: as §2
# [13] = system: MRSA KS1; test: MIC, broth microdilution, MRSA KS1; format: cell-based, Staphylococcus aureus; settings: for MIC-fold improvement vs. vancomycin: MRSA KS1, ratio of MIC of vancomycin and MIC of analogue; for MIC: Staphylococcus aureus MRSA KS1, read-out: MIC
# How it was run: as §1
# [14] = system: S. aureus VSSA (ATCC 6538); test: MIC, broth microdilution, vancomycin-sensitive S. aureus (VSSA/MSSA, ATCC 6538); format: cell-based, Staphylococcus aureus; settings: for MIC: Staphylococcus aureus VSSA, read-out: MIC; for MIC-fold improvement vs. vancomycin: VSSA, ratio of MIC of vancomycin and MIC of analogue
# How it was run: as §1
# [15] = system: E. faecalis VRE 53; test: MIC, broth microdilution, vancomycin-resistant E. faecalis VRE 53 (VanA); format: cell-based, Enterococcus faecalis; settings: for MIC: Enterococcus faecalis VRE 53 (vancomycin-resistant), read-out: MIC; for MIC-fold improvement vs. vancomycin: VRE 53, ratio of MIC of vancomycin and MIC of analogue
# How it was run: as §1
# [16] = system: MRSA KS89; test: MIC, broth microdilution, MRSA KS89; format: cell-based, Staphylococcus aureus; settings: for MIC-fold improvement vs. vancomycin: MRSA KS8, ratio of MIC of vancomycin and MIC of analogue; for MIC: Staphylococcus aureus MRSA KS8, read-out: MIC
# How it was run: as §1
SMILES,MIC [1] [µM],MIC-fold improvement vs. vancomycin [1],MIC [2] [µM],MIC-fold improvement vs. vancomycin [2],MIC-fold improvement vs. vancomycin [3],MIC [3] [µM],IC50 [4] [µM],IC50 [5] [µM],MIC-fold improvement vs. vancomycin [6],MIC [6] [µM],MIC [7] [µM],MIC-fold improvement vs. vancomycin [7],MIC [8] [µM],MIC-fold improvement vs. vancomycin [8],MIC [9] [µM],MIC-fold improvement vs. vancomycin [9],IC50 [10] [µM],MIC [11] [µM],MIC-fold improvement vs. vancomycin [11],IC50 [12] [µM],other results
CN[C@H](CC(C)C)C(=O)N[C@H]1C(=O)N[C@@H](CC(N)=O)C(=O)N[C@H]2C(=O)N[C@H]3C(=O)N[C@H](C(=O)N[C@H](C(=O)NCC(=O)Nc4ccc(F)cc4F)c4cc(O)cc(O)c4-c4cc3ccc4O)[C@H](O)c3ccc(c(Cl)c3)Oc3cc2cc(c3O[C@@H]2O[C@H](CO)[C@@H](O)[C@H](O)[C@H]2O[C@H]2C[C@](C)(N)[C@H](O)[C@H](C)O2)Oc2ccc(cc2Cl)[C@H]1O [Vanc-16],>50,<8,50,8,1,0.78,228,> 250,1,0.78,0.78,2,12.5,16,25,4,184 ± 60,0.78,8,> 250,MIC-fold improvement vs. vancomycin [13]: 1; MIC [13]: 0.78 µM; MIC [14]: 0.78 µM; MIC-fold improvement vs. vancomycin [14]: 1; MIC [15]: 25 µM; MIC-fold improvement vs. vancomycin [15]: 16; MIC-fold improvement vs. vancomycin [16]: 1; MIC [16]: 0.78 µM
CN[C@H](CC(C)C)C(=O)N[C@H]1C(=O)N[C@@H](CC(N)=O)C(=O)N[C@H]2C(=O)N[C@H]3C(=O)N[C@H](C(=O)N[C@H](C(=O)NCC(=O)Nc4cc(OC)cc(OC)c4)c4cc(O)cc(O)c4-c4cc3ccc4O)[C@H](O)c3ccc(c(Cl)c3)Oc3cc2cc(c3O[C@@H]2O[C@H](CO)[C@@H](O)[C@H](O)[C@H]2O[C@H]2C[C@](C)(N)[C@H](O)[C@H](C)O2)Oc2ccc(cc2Cl)[C@H]1O [Vanc-17],25,16,50,8,2,0.39,206,> 250,1,0.78,0.78,2,6.25,32,12.5,8,119 ± 48,0.78,8,> 250,MIC-fold improvement vs. vancomycin [13]: 1; MIC [13]: 0.78 µM; MIC [14]: 0.78 µM; MIC-fold improvement vs. vancomycin [14]: 1; MIC [15]: 25 µM; MIC-fold improvement vs. vancomycin [15]: 16; MIC-fold improvement vs. vancomycin [16]: 1; MIC [16]: 0.78 µM
CN[C@H](CC(C)C)C(=O)N[C@H]1C(=O)N[C@@H](CC(N)=O)C(=O)N[C@H]2C(=O)N[C@H]3C(=O)N[C@H](C(=O)N[C@H](C(=O)NCC(=O)Nc4cc(C)ccc4O)c4cc(O)cc(O)c4-c4cc3ccc4O)[C@H](O)c3ccc(c(Cl)c3)Oc3cc2cc(c3O[C@@H]2O[C@H](CO)[C@@H](O)[C@H](O)[C@H]2O[C@H]2C[C@](C)(N)[C@H](O)[C@H](C)O2)Oc2ccc(cc2Cl)[C@H]1O [Vanc-18],25,16,50,8,2,0.39,> 250,> 250,1,0.78,1.56,1,12.5,16,25,4,> 250,0.78,8,> 250,MIC-fold improvement vs. vancomycin [13]: 1; MIC [13]: 0.78 µM; MIC [14]: 0.78 µM; MIC-fold improvement vs. vancomycin [14]: 1; MIC [15]: 25 µM; MIC-fold improvement vs. vancomycin [15]: 16; MIC-fold improvement vs. vancomycin [16]: 1; MIC [16]: 0.78 µM
CCc1cccc(C)c1NC(=O)CNC(=O)C1NC(=O)C2NC(=O)C(NC(=O)C3NC(=O)C(CC(N)=O)NC(=O)C(NC(=O)C(CC(C)C)NC)C(O)c4ccc(c(Cl)c4)Oc4cc3cc(c4OC3OC(CO)C(O)C(O)C3OC3CC(C)(N)C(O)C(C)O3)Oc3ccc(cc3Cl)C2O)c2ccc(O)c(c2)-c2c(O)cc(O)cc21 (stereo not shown) [Vanc-19],12.5,32,25,16,1,0.78,188,> 250,0.5,1.56,1.56,1,3.13,64,12.5,8,63 ± 5,3.13,2,> 250,MIC-fold improvement vs. vancomycin [13]: 1; MIC [13]: 0.78 µM; MIC [14]: 0.78 µM; MIC-fold improvement vs. vancomycin [14]: 1; MIC [15]: 25 µM; MIC-fold improvement vs. vancomycin [15]: 16; MIC-fold improvement vs. vancomycin [16]: 1; MIC [16]: 0.78 µM
